From patent publication US11690860B2, “Treatment of HCV infected patients with cirrhosis” (Atea Pharmaceuticals, Inc., priority 2018, dated 2023)
“Also recorded” adds a separate entry of the source. Like-named read-outs stand apart in the source and are kept apart here.

Assay: Plasma pharmacokinetics of Compound 1 and metabolite 1-7 (LC-MS/MS) in Parts C, D and E
Assay type: in vivo, human
Protocol: Doses were administered as the Compound 2 salt base. The free base Compound 1 equivalent is often given in parenthesis.
Part C was a randomized, double-blind, placebo-controlled MAD study divided into three cohorts. […] The dose escalation only proceeded following satisfactory review of the data.
HCV-infected patients were treatment-naïve with HCV RNA ≥5 log 10 IU/mL. HCV RNA was quantified using COBAS® AmpliPrep TaqMAN® v2.0 with LLQ of 15 IU/mL. Plasma drug levels were measured using LC-MS/MS. […] Cirrhosis was confirmed by prior liver biopsy or Fibroscan >12.5 kPa. […] Mean ages of enrolled subjects were 44, 39, and 56 years in the non-cirrhotic GT1b 600 mg dose cohort, non-cirrhotic GT3 cohort, and the cirrhotic cohort, respectively.
Plasma levels of metabolite 1-7 were measured using LC-MS/MS.

[1] = Part C, 150 to 600 mg Compound 2

C[C@@]1(F)[C@H](O)[C@@H](CO)O[C@H]1n1cnc2c(=O)[nH]c(N)nc21 [Metabolite 1-7, 2-amino-9-((2R,3R,4R,5R)-3-fluoro-4-hydroxy-5-(hydroxymethyl)-3-methyltetrahydrofuran-2-yl)-1,9-dihydro-6H-purin-6-one]
PK in cirrhotic compared with non-cirrhotic subjects (600 mg QD of Compound 2, Parts C/D vs Part E): similar; also recorded: comparable
time at which steady state was reached (NC subjects, based on metabolite 1-7 trough levels): after the third or fourth dose; also recorded: day 3 or 4
higher trough upon reaching steady state (Part C): 50%-60%
time of peak formation after dosing (Part C): approximately 6 hours
dose proportionality of plasma exposure (peak and total) [1]: dose proportional from 150 to 300 mg and less than dose proportional from 300 mg to 600 mg
dose proportionality of trough levels [1]: mostly dose proportional
AUC Day 1 (AUC, for Metabolite 1-7) (Part C, NC GT1b, 150 mg/d Compound 2 QD, n=6): 800 ± 213 ng/mLxh
AUC Day 1 (AUC, for Metabolite 1-7) (Part C, NC GT1b, 300 mg/d Compound 2 QD, n=6): 1414 ± 220 ng/mLxh
AUC Day 1 (AUC, for Metabolite 1-7) (Part C, NC GT1b, 600 mg/d Compound 2 QD, n=6): 2204 ± 486 ng/mLxh
C24 h Day 1 (Part C, NC GT1b, 600 mg/d Compound 2 QD, n=6, trough after the first dose): 27.5 ± 5.21 ng/mL
AUC Day 1 (AUC, for Metabolite 1-7) (Part D, NC GT3, 600 mg/d Compound 2 QD, n=6): 2253 ± 595 ng/mLxh
C24 h Day 1 (Part D, NC GT3, 600 mg/d Compound 2 QD, n=6, trough after the first dose): 30.1 ± 10.9 ng/mL
AUC Day 1 (AUC, for Metabolite 1-7) (Part E, Child-Pugh A cirrhotic, 600 mg/d Compound 2 QD, n=6): 2625 ± 873 ng/mLxh
C24 h Day 1 (Part E, Child-Pugh A cirrhotic, 600 mg/d Compound 2 QD, n=6, trough after the first dose): 41.6 ± 12.9 ng/mL
steady state plasma trough level (cirrhotic patients, 600 mg of Compound 2): 45.7 ng/mL
AUC (human, plasma, 150 mg, AUC of metabolite 1-7, range for the dose, 150 mg Compound 2 QD 7 days (FIG. 7)): 397 to 1430 ng·h/mL
AUC (human, plasma, 300 mg, AUC of metabolite 1-7, range for the dose, 300 mg Compound 2 QD 7 days (FIG. 7)): 1300 to 2580 ng·h/mL
AUC (human, plasma, 600 mg, AUC of metabolite 1-7, range for the dose, 600 mg Compound 2 QD 7 days (FIG. 7)): 2250 to 5380 ng·h/mL
AUC (human, plasma, 600 mg, metabolite 1-7 exposure (AUC) achieved, 600 mg Compound 2 QD, all subjects, cirrhotic or non-cirrhotic): > 2000 ng·h/mL
concentration at 24 h (human, plasma, oral, 150 mg/d, Part C, NC GT1b, 150 mg/d Compound 2 QD, n=6, read-out: C24 h Day 1): 8.08 ± 3.48 ng/mL
Cmax (human, plasma, oral, 150 mg/d, Part C, NC GT1b, 150 mg/d Compound 2 QD, n=6, read-out: Cmax Day 1): 75.6 ± 15.4 ng/mL
concentration at 24 h (human, plasma, oral, 150 mg/d, steady state = mean of C24 at 72, 96, 120, 144 and 168 h, Part C, NC GT1b, 150 mg/d Compound 2 QD, n=6, read-out: C24 h SS): 12.8 ± 4.45 ng/mL
Cmax (human, plasma, oral, 150 mg/d, steady state, Part C, NC GT1b, 150 mg/d Compound 2 QD, n=6, read-out: Cmax SS): 81.1 ± 33.9 ng/mL
half-life (human, plasma, oral, 150 mg/d, steady state, Part C, NC GT1b, 150 mg/d Compound 2 QD, n=6, read-out: T1/2 SS (converted)): 12.5 h
Cmax (human, plasma, oral, 300 mg/d, Part C, NC GT1b, 300 mg/d Compound 2 QD, n=6, read-out: Cmax Day 1): 123 ± 16.6 ng/mL
concentration at 24 h (human, plasma, oral, 300 mg/d, steady state = mean of C24 at 72, 96, 120, 144 and 168 h, Part C, NC GT1b, 300 mg/d Compound 2 QD, n=6, read-out: C24 h SS): 26.1 ± 7.56 ng/mL
Cmax (human, plasma, oral, 300 mg/d, steady state, Part C, NC GT1b, 300 mg/d Compound 2 QD, n=6, read-out: Cmax SS): 220 ± 203 ng/mL
half-life (human, plasma, oral, 300 mg/d, steady state, Part C, NC GT1b, 300 mg/d Compound 2 QD, n=6, read-out: T1/2 SS (converted)): 24.5 h
Cmax (human, plasma, oral, 600 mg/d, Part C, NC GT1b, 600 mg/d Compound 2 QD, n=6, read-out: Cmax Day 1): 197 ± 57.1 ng/mL
concentration at 24 h (human, plasma, oral, 600 mg/d, Part C, NC GT1b, 600 mg/d Compound 2 QD, n=6, trough after the first dose, read-out: C24 h Day 1): 27.5 ng/mL
Cmax (human, plasma, oral, 600 mg/d, Part D, NC GT3, 600 mg/d Compound 2 QD, n=6, read-out: Cmax Day 1): 195 ± 42.9 ng/mL
concentration at 24 h (human, plasma, oral, 600 mg/d, Part D, NC GT3, 600 mg/d Compound 2 QD, n=6, trough after the first dose, read-out: C24 h Day 1): 30.1 ng/mL
Cmax (human, plasma, oral, 600 mg/d, Part E, Child-Pugh A cirrhotic, 600 mg/d Compound 2 QD, n=6, read-out: Cmax Day 1): 201 ± 68.1 ng/mL
concentration at 24 h (human, plasma, oral, 600 mg/d, Part E, Child-Pugh A cirrhotic, 600 mg/d Compound 2 QD, n=6, trough after the first dose, read-out: C24 h Day 1): 41.6 ng/mL
concentration at 24 h (human, plasma, oral, 600 mg/d, steady state = mean of C24 at 72, 96, 120, 144 and 168 h, Part C, NC GT1b, 600 mg/d Compound 2 QD, n=6, read-out: C24 h SS): 46.9 ± 15.5 ng/mL
concentration at 24 h (human, plasma, oral, 600 mg/d, steady state = mean of C24 at 72, 96, 120, 144 and 168 h, Part D, NC GT3, 600 mg/d Compound 2 QD, n=6, read-out: C24 h SS): 37.8 ± 11.4 ng/mL
concentration at 24 h (human, plasma, oral, 600 mg/d, steady state = mean of C24 at 72, 96, 120, 144 and 168 h, Part E, Child-Pugh A cirrhotic, 600 mg/d Compound 2 QD, n=6, read-out: C24 h SS): 69.9 ± 18.5 ng/mL
Cmax (human, plasma, oral, 600 mg/d, steady state, Part C, NC GT1b, 600 mg/d Compound 2 QD, n=6, read-out: Cmax SS): 233 ± 42.9 ng/mL
half-life (human, plasma, oral, 600 mg/d, steady state, Part C, NC GT1b, 600 mg/d Compound 2 QD, n=6, read-out: T1/2 SS (converted)): 28.9 h
Cmax (human, plasma, oral, 600 mg/d, steady state, Part D, NC GT3, 600 mg/d Compound 2 QD, n=6, read-out: Cmax SS): 263 ± 104 ng/mL
half-life (human, plasma, oral, 600 mg/d, steady state, Part D, NC GT3, 600 mg/d Compound 2 QD, n=6, read-out: T1/2 SS (converted)): 27.9 h
half-life (human, plasma, oral, 600 mg/d, steady state, Part E, Child-Pugh A cirrhotic, 600 mg/d Compound 2 QD, n=6, read-out: T1/2 SS (converted)): 24.4 h
Tmax (human, plasma, oral, 600 mg/d, steady state, Part E, Child-Pugh A cirrhotic, 600 mg/d Compound 2 QD, n=6, read-out: Tmax SS): 6 h
half-life (human, plasma, oral, Part C, read-out: half-life): 13 to 30 h
food effect on total and trough exposure (in vivo): No food effect
AUC SS (AUC, for Metabolite 1-7) (steady state, Part C, NC GT1b, 150 mg/d Compound 2 QD, n=6): 962 ± 409 ng/mLxh
AUC SS (AUC, for Metabolite 1-7) (steady state, Part C, NC GT1b, 300 mg/d Compound 2 QD, n=6): 1828 ± 453 ng/mLxh
AUC SS (AUC, for Metabolite 1-7) (steady state, Part C, NC GT1b, 600 mg/d Compound 2 QD, n=6): 2839 ± 572 ng/mLxh
AUC SS (AUC, for Metabolite 1-7) (steady state, Part D, NC GT3, 600 mg/d Compound 2 QD, n=6): 3117 ± 1048 ng/mLxh
AUC SS (AUC, for Metabolite 1-7) (steady state, Part E, Child-Pugh A cirrhotic, 600 mg/d Compound 2 QD, n=6): 3569 ± 1214 ng/mLxh
time at which steady state was reached (subjects with cirrhosis): day 5; also recorded: after the fifth dose
